Test results: patent publication US8367365B2, “Method for determining carbohydrate and kit for determining carbohydrate” (priority 2008, dated 2013)
Like-named read-outs stand apart in the source and are kept apart here.

System: porcine small intestinal mucosal disaccharidase (suspension of porcine small intestinal mucosal brush border membrane)
Type: in vitro ADME
Details: porcine small intestine-derived disaccharidase added to the enzyme reaction system, HPLC
Text: In the method for determining a carbohydrate according to the embodiment of the present invention and the method for determining a carbohydrate according to Examples described below, a suspension of porcine small intestinal mucosal brush border membrane is used as the animal-derived low-molecular-weight carbohydrate digestive enzyme.

SMILES: OC[C@H]1O[C@@](CO)(O[C@H]2O[C@H](CO)[C@@H](O)[C@H](O)[C@H]2O)[C@@H](O)[C@@H]1O [sucrose]
- Digestion by porcine small intestinal mucosal disaccharidases (result in words): almost completely digested
- Digestion by porcine small intestinal mucosal disaccharidases (result in words) (listed as Sucrose): completely digested
